Measurements reported in ChEMBL document CHEMBL1201862, “PubChem BioAssay data set” (2004).
Activity calls are given as the source filed them.

What was measured:
[1] = A Cell Based Secondary Assay to Explore Cytotoxicity in HepG2 Cells of Compounds that Modulate Mycobacterium tuberculosis in Media Containing Glycerol versus Media without Glycerol (2).; assay type: functional
[2] = THP-1 cell cytotoxicity, dose response, cytotoxicity control, set 3 (AID 504852); assay type: functional; settings: Mycobacterium tuberculosis
[3] = HepG2 cell cytotoxicity, dose response, cytotoxicity control, set 3 (AID 504853); assay type: functional; settings: Mycobacterium tuberculosis
[4] = Vero cell cytotoxicity, cytotoxicity control for M. tuberculosis inhibitor project, purified and synthesized samples, set 3 (AID 504684); assay type: functional
[5] = A Cell Based Secondary Assay to Explore Cytotoxicity in THP-1 Cells of Compounds that Modulate Mycobacterium tuberculosis in Media Containing Glycerol versus Media without Glycerol (2).; assay type: functional
[6] = Vero cell cytotoxicity, dose response, cytotoxicity control for M. tuberculosis growth inhibitor project, Vero cells, purified and synthesized compounds, set 5 (AID 504909); assay type: functional; settings: Mycobacterium tuberculosis
[7] = THP-1 cell cytotoxicity, cytotoxicity control, set 4 (AID 504911); assay type: functional; settings: Mycobacterium tuberculosis
[8] = microbe, parasite or virus in culture; assay type: functional; settings: Mycobacterium tuberculosis
[9] = Vero cell cytotoxicity, dose response, cytotoxicity control for M. tuberculosis growth inhibitor project, Vero cells, purified and synthesized compounds, set 4 (AID 504854); assay type: functional; settings: Mycobacterium tuberculosis
[10] = HepG2 cell cytotoxicity, cytotoxicity control, set 4 (AID 504910); assay type: functional; settings: Mycobacterium tuberculosis
[11] = Luminescence Cell-Based Dose Retest to Confirm Inhibitors of Cancer Stem Cells. [Related pubchem assays (depositor defined):AID2717, AID2721]; assay type: functional; settings: Homo sapiens
[12] = cytotoxicity in HMLE control line with eGFP shRNA, dose response, counter-screen for HMLE_sh_ECad selective toxicity project, cell-based, HMLE_sh_eGFP, luminescence (AID 463074); assay type: functional, Homo sapiens;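 further: HMLE human mammary epithelial cells expressing control shRNA against eGFP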
[13] = molecular target: Neuropeptides B/W receptor type 1 (Homo sapiens, UniProt P48145); assay: GPR7 antagonist potency, late-stage follow-up, cell-based, fluorescence, dose response, set 6 (AID 588583); assay type: functional
Neuropeptides B/W receptor type 1, sequence (P48145 whole entry): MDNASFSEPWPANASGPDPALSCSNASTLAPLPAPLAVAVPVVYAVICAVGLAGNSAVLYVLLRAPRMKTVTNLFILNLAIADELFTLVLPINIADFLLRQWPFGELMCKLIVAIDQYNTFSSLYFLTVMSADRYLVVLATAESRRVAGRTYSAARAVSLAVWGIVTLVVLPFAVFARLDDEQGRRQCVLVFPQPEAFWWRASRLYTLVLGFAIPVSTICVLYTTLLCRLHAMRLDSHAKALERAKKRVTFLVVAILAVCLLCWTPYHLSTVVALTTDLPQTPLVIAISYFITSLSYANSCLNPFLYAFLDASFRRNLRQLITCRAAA

[14] = molecular target: Melanin-concentrating hormone receptor 1 (Homo sapiens, UniProt Q99705); assay: Late-stage fluorescence-based counterscreen for antagonists of the G-protein coupled receptor 7 (GPR7): cell-based dose response assay to identify antagonists of the melanin-concentrating hormone receptor 1 (MCHR1) Set 6.; assay type: functional
Melanin-concentrating hormone receptor 1, sequence (Q99705 whole entry): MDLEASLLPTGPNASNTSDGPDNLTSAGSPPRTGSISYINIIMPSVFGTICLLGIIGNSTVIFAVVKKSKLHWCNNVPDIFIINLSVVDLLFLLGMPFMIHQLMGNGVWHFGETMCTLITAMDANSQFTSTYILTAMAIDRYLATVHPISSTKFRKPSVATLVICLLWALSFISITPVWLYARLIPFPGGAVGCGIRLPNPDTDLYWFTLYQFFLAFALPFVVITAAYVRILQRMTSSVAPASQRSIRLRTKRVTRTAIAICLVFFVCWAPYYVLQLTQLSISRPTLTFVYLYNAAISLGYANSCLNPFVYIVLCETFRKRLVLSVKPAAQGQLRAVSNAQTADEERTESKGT

[15] = molecular target: T1, DNA dC->dU-editing enzyme APOBEC-3G (Homo sapiens, UniProt Q9HC16); assay: APOBEC3G deaminase inhibitors, SAR follow-up, biochemical, fluorescence, single-stranded DNA substrate (AID 602136); assay type: functional; settings: read-out: IC50_Mean
T1 sequence (Q9HC16 whole entry): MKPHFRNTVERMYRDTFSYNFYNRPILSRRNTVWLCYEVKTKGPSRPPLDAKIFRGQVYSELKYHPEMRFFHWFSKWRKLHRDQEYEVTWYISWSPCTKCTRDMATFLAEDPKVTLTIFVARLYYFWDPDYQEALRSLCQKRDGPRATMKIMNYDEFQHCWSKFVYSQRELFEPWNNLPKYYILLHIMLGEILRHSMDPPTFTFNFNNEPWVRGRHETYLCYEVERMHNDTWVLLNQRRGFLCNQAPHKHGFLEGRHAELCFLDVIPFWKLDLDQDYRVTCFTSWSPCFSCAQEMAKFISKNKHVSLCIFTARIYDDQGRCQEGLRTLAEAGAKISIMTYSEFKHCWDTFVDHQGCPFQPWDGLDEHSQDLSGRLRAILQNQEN

[16] = molecular target: T1, DNA dC->dU-editing enzyme APOBEC-3G; assay: SAR analysis of small molecule inhibitors of APOBEC3G DNA Deaminase via a fluorescence-based single-stranded DNA deaminase assay - Set 2.; assay type: functional; settings: read-out: IC50_Mean
[17] = molecular target: Protein-tyrosine kinase 2-beta (Homo sapiens, UniProt Q14289);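 further: potency of inhibitors of PYK2 kinase phosphorylation of poly-GT substrate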
Protein-tyrosine kinase 2-beta, sequence (Q14289 whole entry): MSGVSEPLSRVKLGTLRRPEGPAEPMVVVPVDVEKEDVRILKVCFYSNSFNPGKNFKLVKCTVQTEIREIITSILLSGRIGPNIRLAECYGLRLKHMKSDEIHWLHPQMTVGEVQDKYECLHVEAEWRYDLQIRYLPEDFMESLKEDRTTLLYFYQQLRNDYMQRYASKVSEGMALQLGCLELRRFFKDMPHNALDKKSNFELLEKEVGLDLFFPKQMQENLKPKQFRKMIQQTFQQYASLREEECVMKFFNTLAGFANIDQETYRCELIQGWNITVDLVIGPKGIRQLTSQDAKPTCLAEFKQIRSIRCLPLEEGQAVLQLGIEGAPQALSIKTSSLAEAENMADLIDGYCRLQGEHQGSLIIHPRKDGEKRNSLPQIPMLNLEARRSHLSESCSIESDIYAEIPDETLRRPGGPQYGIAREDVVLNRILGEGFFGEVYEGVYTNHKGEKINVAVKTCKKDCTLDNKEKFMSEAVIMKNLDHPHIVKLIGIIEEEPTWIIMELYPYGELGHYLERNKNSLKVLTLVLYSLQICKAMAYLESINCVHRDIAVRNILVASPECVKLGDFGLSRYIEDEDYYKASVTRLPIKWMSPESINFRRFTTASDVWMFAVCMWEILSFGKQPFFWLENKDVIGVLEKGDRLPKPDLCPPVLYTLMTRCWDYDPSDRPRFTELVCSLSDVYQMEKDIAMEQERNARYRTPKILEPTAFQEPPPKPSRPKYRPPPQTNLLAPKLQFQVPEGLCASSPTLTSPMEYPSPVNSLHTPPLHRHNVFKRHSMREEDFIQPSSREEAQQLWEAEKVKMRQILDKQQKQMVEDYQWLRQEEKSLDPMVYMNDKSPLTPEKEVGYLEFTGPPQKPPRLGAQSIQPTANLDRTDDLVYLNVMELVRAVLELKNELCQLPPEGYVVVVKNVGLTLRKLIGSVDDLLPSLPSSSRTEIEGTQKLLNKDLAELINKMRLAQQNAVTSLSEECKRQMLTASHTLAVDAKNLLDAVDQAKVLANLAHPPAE

[18] = molecular target: Ephrin type-A receptor 4 (Mus musculus, UniProt Q03137); assay: inhibitors of EphA4 binding to KYL peptide, primary screen, biochemical, colorimetric, mouse EphA4 (AID 689); assay type: functional
[19] = molecular target: Intestinal-type alkaline phosphatase (Mus musculus, UniProt P24822); assay: PubChem AID 488785; assay type: functional
Intestinal-type alkaline phosphatase (Mus musculus, UniProt P24822), sequence (P24822 whole entry): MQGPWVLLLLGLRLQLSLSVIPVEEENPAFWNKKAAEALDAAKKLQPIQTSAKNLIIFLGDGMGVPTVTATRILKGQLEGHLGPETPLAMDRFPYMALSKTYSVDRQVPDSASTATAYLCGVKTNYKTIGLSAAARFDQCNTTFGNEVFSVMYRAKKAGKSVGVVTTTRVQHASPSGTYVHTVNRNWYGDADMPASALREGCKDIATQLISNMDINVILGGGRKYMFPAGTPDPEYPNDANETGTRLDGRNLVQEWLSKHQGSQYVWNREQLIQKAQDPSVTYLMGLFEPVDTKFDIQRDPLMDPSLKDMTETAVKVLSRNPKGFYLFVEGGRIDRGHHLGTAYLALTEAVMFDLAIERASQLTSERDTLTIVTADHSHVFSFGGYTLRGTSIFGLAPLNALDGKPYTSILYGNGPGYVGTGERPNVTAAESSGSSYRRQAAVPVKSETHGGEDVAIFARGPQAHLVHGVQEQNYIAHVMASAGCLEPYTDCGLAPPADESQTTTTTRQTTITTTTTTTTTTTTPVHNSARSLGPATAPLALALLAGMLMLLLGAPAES

[20] = molecular target: Intestinal-type alkaline phosphatase (Homo sapiens, UniProt P09923); assay: inhibition of human intestinal alkaline phosphatase – biochemical, dose response (AID 488876); assay type: functional
Intestinal-type alkaline phosphatase (Homo sapiens, UniProt P09923), sequence (P09923 whole entry): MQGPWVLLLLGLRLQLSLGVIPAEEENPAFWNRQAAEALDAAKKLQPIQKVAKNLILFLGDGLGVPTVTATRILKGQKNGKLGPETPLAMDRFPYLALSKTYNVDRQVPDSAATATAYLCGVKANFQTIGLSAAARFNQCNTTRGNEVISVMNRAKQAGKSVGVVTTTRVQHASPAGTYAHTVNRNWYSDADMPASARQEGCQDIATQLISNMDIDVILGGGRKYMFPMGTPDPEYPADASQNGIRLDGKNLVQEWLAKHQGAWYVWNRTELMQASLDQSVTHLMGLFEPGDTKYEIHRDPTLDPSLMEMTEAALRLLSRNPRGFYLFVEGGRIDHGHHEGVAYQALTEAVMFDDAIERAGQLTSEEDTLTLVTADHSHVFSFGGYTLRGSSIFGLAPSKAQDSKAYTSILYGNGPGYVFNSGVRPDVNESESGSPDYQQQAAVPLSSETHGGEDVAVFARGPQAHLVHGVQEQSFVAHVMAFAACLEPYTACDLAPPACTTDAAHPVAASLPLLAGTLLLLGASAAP

[21] = molecular target: T2, Histone-lysine N-methyltransferase NSD2 (Homo sapiens, UniProt O96028); assay type: biochemical
T2 sequence (O96028 whole entry): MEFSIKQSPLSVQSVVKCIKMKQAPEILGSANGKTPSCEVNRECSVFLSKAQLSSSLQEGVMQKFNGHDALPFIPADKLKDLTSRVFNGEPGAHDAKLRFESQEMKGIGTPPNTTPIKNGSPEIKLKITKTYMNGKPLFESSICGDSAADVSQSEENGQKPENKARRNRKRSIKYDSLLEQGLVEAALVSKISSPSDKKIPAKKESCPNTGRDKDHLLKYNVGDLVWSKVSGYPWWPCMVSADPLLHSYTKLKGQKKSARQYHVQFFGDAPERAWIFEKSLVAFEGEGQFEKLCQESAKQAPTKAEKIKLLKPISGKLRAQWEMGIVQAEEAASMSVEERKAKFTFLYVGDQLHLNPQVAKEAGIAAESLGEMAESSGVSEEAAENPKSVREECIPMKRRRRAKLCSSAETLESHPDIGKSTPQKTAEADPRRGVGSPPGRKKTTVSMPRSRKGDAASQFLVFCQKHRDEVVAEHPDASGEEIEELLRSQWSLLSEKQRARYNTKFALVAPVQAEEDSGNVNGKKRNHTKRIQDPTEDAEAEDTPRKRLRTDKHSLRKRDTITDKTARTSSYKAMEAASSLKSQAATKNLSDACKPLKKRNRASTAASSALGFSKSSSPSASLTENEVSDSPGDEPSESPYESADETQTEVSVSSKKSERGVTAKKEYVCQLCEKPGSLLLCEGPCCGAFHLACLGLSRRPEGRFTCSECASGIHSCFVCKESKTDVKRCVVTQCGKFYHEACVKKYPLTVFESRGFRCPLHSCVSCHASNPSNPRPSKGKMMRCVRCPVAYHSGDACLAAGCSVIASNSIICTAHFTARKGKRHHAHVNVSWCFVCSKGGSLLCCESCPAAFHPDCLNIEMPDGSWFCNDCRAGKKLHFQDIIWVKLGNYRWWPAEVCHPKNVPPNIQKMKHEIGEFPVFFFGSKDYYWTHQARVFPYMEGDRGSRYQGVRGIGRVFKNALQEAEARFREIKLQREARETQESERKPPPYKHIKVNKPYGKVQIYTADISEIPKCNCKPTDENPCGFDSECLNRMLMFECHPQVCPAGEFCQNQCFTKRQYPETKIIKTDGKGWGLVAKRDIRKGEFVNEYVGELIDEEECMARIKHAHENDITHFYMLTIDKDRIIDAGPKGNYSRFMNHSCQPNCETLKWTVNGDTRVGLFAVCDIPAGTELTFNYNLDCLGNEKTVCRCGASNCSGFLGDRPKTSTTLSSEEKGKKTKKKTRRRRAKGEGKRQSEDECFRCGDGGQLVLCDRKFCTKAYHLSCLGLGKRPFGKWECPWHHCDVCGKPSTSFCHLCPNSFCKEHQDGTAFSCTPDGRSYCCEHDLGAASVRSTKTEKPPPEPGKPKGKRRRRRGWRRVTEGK

[22] = Artemis endonuclease inhibitor potency, dose response, biochemical, fluorescence intensity (AID 720701); assay type: functional;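 further: Artemis endonuclease enzyme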
[23] = molecular target: 1-phosphatidylinositol 4,5-bisphosphate phosphodiesterase gamma-1 (Homo sapiens, UniProt P19174); assay: Counterscreen for inhibitors of phospholipase C isozymes (PLC-B3): Fluorescence-based biochemical high throughput dose response assay to identify inhibitors of phospholipase C isozymes (PLC-gamma1).
[24] = molecular target: T3, DNA dC->dU-editing enzyme APOBEC-3A (Homo sapiens, UniProt P31941); assay: SAR analysis of small molecule inhibitors of APOBEC3A DNA Deaminase via a fluorescence-based single-stranded DNA deaminase assay - Set 2.; assay type: functional; settings: read-out: IC50_Mean
T3 sequence (P31941 whole entry): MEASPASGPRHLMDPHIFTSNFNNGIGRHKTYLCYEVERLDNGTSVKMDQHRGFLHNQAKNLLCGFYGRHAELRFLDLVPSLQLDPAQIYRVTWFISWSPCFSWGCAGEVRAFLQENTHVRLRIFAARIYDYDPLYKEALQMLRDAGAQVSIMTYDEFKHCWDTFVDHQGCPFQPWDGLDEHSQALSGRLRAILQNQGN

[25] = molecular target: Troponin, cardiac muscle (Homo sapiens, UniProt P19429+P45379+P63316); assay: inhibitors of cardiac thin filament calcium sensitivity, dose response, biochemical, fluorescence, cardiac regulated thin filaments, triplicate IC50 (AID 504742); assay type: protein-complex assay
[26] = molecular target: 1-phosphatidylinositol 4,5-bisphosphate phosphodiesterase beta-3 (Homo sapiens, UniProt Q01970); assay: Fluorescence-based biochemical high throughput dose response assay to identify inhibitors of phospholipase C isozymes (PLC-B3).
[27] = molecular target: Bifunctional protein GlmU (Mycobacterium tuberculosis, UniProt P9WMN3); assay: Inhibitors of Mycobacterial Glucosamine-1-phosphate acetyl transferase (GlmU). Secondary screen.; design: species or system Mycobacterium tuberculosis H37Rv
Bifunctional protein GlmU, sequence (P9WMN3 whole entry): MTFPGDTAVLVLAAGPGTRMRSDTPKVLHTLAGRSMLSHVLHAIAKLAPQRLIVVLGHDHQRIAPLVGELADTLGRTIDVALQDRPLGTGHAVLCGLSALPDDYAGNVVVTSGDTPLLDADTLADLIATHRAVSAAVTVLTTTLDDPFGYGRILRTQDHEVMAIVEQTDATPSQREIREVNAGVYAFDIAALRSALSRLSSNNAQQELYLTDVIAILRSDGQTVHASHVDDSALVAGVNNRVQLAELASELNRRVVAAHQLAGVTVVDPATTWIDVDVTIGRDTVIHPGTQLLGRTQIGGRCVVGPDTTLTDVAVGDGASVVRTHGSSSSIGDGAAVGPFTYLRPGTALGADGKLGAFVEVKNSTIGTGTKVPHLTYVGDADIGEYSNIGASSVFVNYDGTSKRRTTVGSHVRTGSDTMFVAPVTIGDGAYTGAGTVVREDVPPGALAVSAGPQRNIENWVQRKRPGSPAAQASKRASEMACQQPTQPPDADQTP

[28] = molecular target: ORF 73 (Human herpesvirus 8, UniProt O40947); assay: inhibitors of C-LANA binding to LBS DNA, dose response, biochemical, fluorescence polarization, cherry-picked samples (AID 504725); design: species or system Human gammaherpesvirus 8;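 further: fluorescence polarization of a labeled DNA duplex reporting LANA DNA binding; potency is for inhibitors that block LANA binding to the DNA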
ORF 73, sequence (O40947 whole entry): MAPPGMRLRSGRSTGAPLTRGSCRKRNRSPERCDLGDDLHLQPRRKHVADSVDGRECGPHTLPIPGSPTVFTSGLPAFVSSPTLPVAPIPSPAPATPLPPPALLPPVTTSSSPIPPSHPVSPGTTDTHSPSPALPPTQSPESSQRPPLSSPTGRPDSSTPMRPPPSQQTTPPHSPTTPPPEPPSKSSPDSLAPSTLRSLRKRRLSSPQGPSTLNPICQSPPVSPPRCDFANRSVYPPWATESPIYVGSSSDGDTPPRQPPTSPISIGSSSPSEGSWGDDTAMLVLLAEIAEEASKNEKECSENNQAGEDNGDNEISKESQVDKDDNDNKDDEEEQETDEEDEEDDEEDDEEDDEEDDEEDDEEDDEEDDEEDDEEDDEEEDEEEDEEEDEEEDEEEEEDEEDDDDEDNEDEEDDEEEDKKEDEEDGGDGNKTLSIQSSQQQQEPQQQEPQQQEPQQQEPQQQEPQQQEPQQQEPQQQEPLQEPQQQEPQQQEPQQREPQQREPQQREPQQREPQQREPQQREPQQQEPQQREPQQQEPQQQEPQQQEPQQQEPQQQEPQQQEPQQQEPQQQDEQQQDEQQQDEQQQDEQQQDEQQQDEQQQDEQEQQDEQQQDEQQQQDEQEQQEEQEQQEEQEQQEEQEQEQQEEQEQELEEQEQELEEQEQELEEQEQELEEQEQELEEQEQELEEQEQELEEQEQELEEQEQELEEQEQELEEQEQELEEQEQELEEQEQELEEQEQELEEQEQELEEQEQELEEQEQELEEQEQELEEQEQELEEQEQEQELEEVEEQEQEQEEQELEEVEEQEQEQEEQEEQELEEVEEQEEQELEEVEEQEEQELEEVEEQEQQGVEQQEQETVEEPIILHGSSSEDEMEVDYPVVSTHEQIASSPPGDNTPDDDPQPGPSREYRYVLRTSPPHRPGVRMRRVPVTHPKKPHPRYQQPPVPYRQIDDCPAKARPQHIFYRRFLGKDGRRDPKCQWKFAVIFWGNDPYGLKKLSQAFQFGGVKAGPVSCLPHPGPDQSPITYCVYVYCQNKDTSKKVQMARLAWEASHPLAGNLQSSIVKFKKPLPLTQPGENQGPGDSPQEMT

[29] = molecular target: T4, Alkaline phosphatase, tissue-nonspecific isozyme (Homo sapiens, UniProt P05186); assay: TNAP enzyme inhibition by screening hits, dose response, selectivity assay for mouse IAP inhibitor project, biochemical, human TNAP, uHTS hits (AID 488906); assay type: functional
T4 sequence (P05186 whole entry): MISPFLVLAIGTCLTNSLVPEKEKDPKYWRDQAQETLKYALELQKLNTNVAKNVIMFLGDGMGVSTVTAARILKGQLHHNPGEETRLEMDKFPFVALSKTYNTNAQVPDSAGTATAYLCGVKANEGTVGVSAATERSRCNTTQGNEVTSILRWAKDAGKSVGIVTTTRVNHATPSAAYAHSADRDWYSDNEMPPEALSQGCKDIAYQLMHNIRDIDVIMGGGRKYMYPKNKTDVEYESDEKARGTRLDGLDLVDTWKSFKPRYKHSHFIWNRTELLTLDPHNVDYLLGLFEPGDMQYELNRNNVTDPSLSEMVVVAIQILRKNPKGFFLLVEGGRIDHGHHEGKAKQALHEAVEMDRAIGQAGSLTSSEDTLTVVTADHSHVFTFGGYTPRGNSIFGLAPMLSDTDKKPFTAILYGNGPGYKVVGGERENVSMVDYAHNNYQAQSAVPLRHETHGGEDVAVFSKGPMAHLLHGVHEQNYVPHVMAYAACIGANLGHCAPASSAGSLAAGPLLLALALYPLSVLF

[30] = molecular target: T3, DNA dC->dU-editing enzyme APOBEC-3A; assay: SAR analysis of small molecule inhibitors of APOBEC3A DNA Deaminase via a fluorescence-based single-stranded DNA deaminase assay.; assay type: functional; settings: read-out: IC50_Mean
[31] = molecular target: T5, Apoptotic protease-activating factor 1 (Homo sapiens, UniProt O14727); assay: SAR analysis of small molecule Activators of Apaf-1 in a Fluorescent assay - set 2.; assay type: functional; settings: read-out: EC50_Mean
T5 sequence (O14727 whole entry): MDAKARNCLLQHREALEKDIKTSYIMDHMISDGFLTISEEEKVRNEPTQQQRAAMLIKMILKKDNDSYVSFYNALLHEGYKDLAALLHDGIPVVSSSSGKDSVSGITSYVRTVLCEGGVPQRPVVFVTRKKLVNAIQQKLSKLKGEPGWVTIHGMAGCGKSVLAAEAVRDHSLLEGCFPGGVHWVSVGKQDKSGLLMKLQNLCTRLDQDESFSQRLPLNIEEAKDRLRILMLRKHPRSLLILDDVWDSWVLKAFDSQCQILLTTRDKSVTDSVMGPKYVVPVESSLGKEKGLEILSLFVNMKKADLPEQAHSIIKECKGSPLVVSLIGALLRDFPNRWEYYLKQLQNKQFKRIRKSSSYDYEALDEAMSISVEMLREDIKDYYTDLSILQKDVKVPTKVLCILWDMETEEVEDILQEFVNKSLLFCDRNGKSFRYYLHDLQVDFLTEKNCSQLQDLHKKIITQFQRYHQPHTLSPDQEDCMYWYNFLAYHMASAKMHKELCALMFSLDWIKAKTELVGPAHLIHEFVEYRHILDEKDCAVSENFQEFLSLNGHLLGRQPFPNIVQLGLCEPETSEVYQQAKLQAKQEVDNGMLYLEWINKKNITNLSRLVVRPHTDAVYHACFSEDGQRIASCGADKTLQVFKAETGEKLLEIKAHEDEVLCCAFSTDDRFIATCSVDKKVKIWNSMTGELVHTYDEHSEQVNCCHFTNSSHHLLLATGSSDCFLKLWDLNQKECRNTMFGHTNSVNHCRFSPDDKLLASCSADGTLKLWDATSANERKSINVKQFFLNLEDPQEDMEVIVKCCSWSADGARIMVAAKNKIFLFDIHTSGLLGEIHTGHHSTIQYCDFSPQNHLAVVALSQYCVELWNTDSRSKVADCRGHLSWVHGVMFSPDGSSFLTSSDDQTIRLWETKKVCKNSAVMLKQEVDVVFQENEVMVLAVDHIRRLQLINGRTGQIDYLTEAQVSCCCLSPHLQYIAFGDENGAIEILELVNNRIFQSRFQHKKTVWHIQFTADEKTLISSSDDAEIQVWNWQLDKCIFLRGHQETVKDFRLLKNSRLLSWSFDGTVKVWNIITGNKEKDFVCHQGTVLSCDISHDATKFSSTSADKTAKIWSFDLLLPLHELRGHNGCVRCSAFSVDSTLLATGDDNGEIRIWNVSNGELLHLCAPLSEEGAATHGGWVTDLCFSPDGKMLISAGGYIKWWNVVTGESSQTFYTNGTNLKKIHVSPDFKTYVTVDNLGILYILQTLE

[32] = SAR analysis of small molecule activators of Apaf-1 using a LZ-Caspase-9/Caspase-3 Fluorescent Selectivity assay - Set 2.; assay type: functional; settings: read-out: EC50_Mean

Cc1cccc(-c2oc3ccc(-c4ccc5c(c4)OCO5)cc3c2C#Cc2cncn2C)c1
CC50 [1]: > 50 µM (active)
CC50 [2]: 34.6 µM (active)
CC50 [3]: > 50 µM (active)
CC50 [4]: 42.3 µM (active)
CC50 [5]: 43.8 µM (active)
CC50 [6]: 85.2 µM (active)
CC50 [7]: > 44.8 µM (active)
CC50 [8]: > 40 µM (active)
CC50 [9]: > 93 µM (active)
CC50 [10]: > 50 µM (active)
AC50 [11]: 5.28 µM (active)
AC50 [12]: 21.8 µM (active)

N#CC(c1ccc(F)cc1)c1c(Br)cnn(Cc2cccc3ccccc23)c1=O (configuration not stated)
IC50 [13]: 0.24 µM (active)
IC50 [14]: 0.24 µM (active)

CC(C(=O)O)N1C(=O)/C(=C/C=C/c2ccco2)SC1=S (configuration not stated)
IC50 [15]: 2.08 µM (active)
IC50 [16]: 0.884 µM (active)
IC50 [17]: 1.07 µM (active)
IC50 [18]: 2.79 µM (active)
IC50 [19]: 10 µM (active)
IC50 [20]: > 100 µM (inactive)
AC50 [21]: 1.63 µM (active)
IC50 [22]: > 20 µM (inactive)
IC50 [23]: > 122 µM (inactive)
IC50 [24]: 1.21 µM (active)
IC50 [25]: > 71.5 µM (inactive)
IC50 [26]: > 122 µM (inactive)
IC50 [27]: 61.4 µM (active)
AC50 [28]: 45.6 µM (active)
IC50 [29]: > 100 µM (inactive)
IC50 [30]: 1.19 µM (active)

COc1ccc(C2=NOC(C(=O)O)C2)cc1 (configuration not stated)
EC50 [31]: > 100 µM (inactive)
EC50 [32]: > 100 µM (inactive)
